Laboratory results from patent US20230303972A1, “IN VITRO GENETIC DISEASE MODEL CELL AND METHOD FOR PRODUCING THE SAME” (Ricoh Company, Ltd., priority 2022, published 2023).

B1: BDNF: BDNF, which is known for the therapeutic effect for Rett syndrome, added to culture medium (protein, UniProt P23560 19-247, looked up)
Neurotrophic factor BDNF …: APMKEANIRGQGGLAYPGVRTHGTLESVNGPKAGSRGLTSLADTFEHVIEELLDEDQKVRPNEENNKDADLYTSRVMLSSQVPLEPPLLFLLEEYKNYLDAANMSMRVRRHSDPARRGELSVCDSISEWVTAADKKTAVDMSGGTVTVLEKVPVSKGQLKQYFYETKCNPMGYTKEGCRGIDKRHWNSQCRTTQSYVRALTMDSKKRIGWRFIRIDTSCVCTLTIKRGR

Key:
[1] = test system: iPS cell-derived differentiated neurocyte cocultured with human primary astrocyte; assay: Neurite morphology of iPS cell-derived neurocytes with hMECP2 knockdown, coculture with human primary astrocytes (phase-contrast observation, BDNF rescue); format: cell-based; settings: observed Day 11 to Day 42
Protocol: (§1) Commercially available iPS-cell-derived neurocytes (#EX-SeV-CW50065, Elixirgen Scientific, Inc.) and commercially available human primary astrocytes (#N7805-100, Thermo Fisher Scientific Inc.) were thawed and used to prepare cell suspensions with culture media at 1×10^4 cells/well and 2.5×10^3 cells/well respectively. After the Laminine solution was removed, the suspension was seeded at 50 μL/well, and cocultured. For single culture, 1×10^4 cells/well neurocytes were seeded at 50 μL/well. The culture continued under 5% CO2 at 37° C. in the incubator for 6 weeks. Half the amount of the culture medium was replaced once in 3 to 4 days. The culture medium used was a culture medium specified by Elixirgen Scientific, Inc. for the period of 1 week after the seeding. Then, the culture medium used was Neurobasal Plus supplemented with 2% B-27 Plus, 1% GlutaMAX, 200 μM ascorbic acid, 10% Neurocyte culture medium, and 1% penicillin-streptomycin.
(§2) At 4 days after the cell seeding, virus solutions for expression of the respective shRNAs were added under MOI 0.1 and MOI 1, and allowed to cause infection. MOI was prepared in accordance with only the number of neurocytes. At 7 hours after the infection, the whole amount of culture medium was replaced. To the culture medium in the wells to be rescued, BDNF, which is known for the therapeutic effect for Rett syndrome, was added at 50 ng/mL. […]

[2] = test system: iPS cell-derived differentiated neurocyte alone; assay: Neurite morphology of iPS cell-derived neurocytes infected with hMECP2-shRNA lentivirus, single culture; format: cell-based, human; settings: FIG. 3
Protocol: as §1, §2

[3] = test system: hMECP2; assay: Ratio of neurocytes with MECP2 knocked down versus amount of lentivirus infection (mCherry fluorescence); format: cell-based, human; settings: coculture
Source text: As a lentivirus vector for transfection, an hMECP2-shRNA lentivirus vector plasmid was used. This plasmid vector contains, downstream of a U6 promoter, a base sequence of SEQ ID NO: 3 ([…]) encoding an shRNA complementary to the 3′ UTR of the hMECP2 gene. Additionally, as a control lentivirus vector, an NC-shRNA lentivirus vector plasmid was used. This plasmid vector contains, downstream of a U6 promoter, a non-mammalian shRNA having a base sequence of SEQ ID NO: 4 ([…]).
At 4 days after the cell seeding, virus solutions for expression of the respective shRNAs were added under MOI 0.1 and MOI 1, and allowed to cause infection. MOI was prepared in accordance with only the number of neurocytes. At 7 hours after the infection, the whole amount of culture medium was replaced. To the culture medium in the wells to be rescued, BDNF, which is known for the therapeutic effect for Rett syndrome, was added at 50 ng/mL.

Molecule | Knockdown effect on hMECP2 evaluated by number of neurites and length of the neurite ([1]; coculture of neurocyte and human primary astrocyte, FIG. 1 a to f) | Knockdown effect on hMECP2 evaluated by number of neurites and length of the neurite [2] | Ratio of neurocytes with MECP2 knocked down ([3]; infection with a large amount of lentivirus, FIG. 5) | Ratio of neurocytes with MECP2 knocked down ([3]; infection with a small amount of lentivirus, FIG. 4) | Rescue of the hMECP2 knockdown effect (decrease in number and length of neurites) ([1]; BDNF 50 ng/mL in culture medium, hMECP2-shRNA lentivirus-infected neurocytes cocultured with astrocytes, FIG. 1 g to l)
hMECP2-shRNA: shRNA complementary to the 3′ UTR of the hMECP2 gene, encoded by SEQ ID NO: 3, expressed from a lentivirus vector (DNA GGGTAGGGCTCTGACAAAGCTTCCCGATTAACTGAAATAAA) | chronological decrease in the number of neurites and decrease in the length of the neurite | neither a decrease in the number of neurites nor a change in the length of the neurite | in substantially all the neurocytes | in a part of the neurocytes | –
B1 | – | – | – | – | improved
